Measurements from US7928104B2, “7-phenylalkyl substituted 2-quinolinones and 2-quinoxalinones as poly(ADP-ribose) polymerase inhibitors” (priority 2003, dated 2011).
Where a name gives a salt, the structure may show the parent alone.

Columns and labels:
[1] = system: ischemia and reperfusion of the heart; conditions: rabbits, cited from earlier work
[2] = system: colitis; conditions: rats, colitis induced by intraluminal trinitrobenzene sulfonic acid in 50% ethanol; cited from earlier work
[3] = molecular target: T1, PARP-1 enzyme (Homo sapiens, UniProt P09874); assay: In vitro Scintillation Proximity Assay (SPA) for PARP-1 inhibitory activity; format: biochemical; conditions: nicked DNA activated PARP-1, [3H]-NAD+, biotinylated histones; read-out: In vitro SPA pIC50 (converted)
T1 construct: made in house
Experimental: Compounds of the present invention were tested in an in vitro assay based on SPA technology (proprietary to Amersham Pharmacia Biotech).
In principle, the assay relies upon the well established SPA technology for the detection of poly(ADP-ribosyl)ation of biotinylated target proteins, i.e histones. This ribosylation is induced using nicked DNA activated PARP-1 enzyme and [^3H]-nicotinamide adenine dinucleotide ([^3H]-NAD^+) as ADP-ribosyl donor.
As inducer of PARP-1 enzyme activity, nicked DNA was prepared. For this, 25 mg of DNA (supplier: Sigma) was dissolved in 25 ml DNAse buffer (10 mM Tris-HCl, pH 7.4; 0.5 mg/ml Bovine Serum Albumine (BSA); 5 mM MgCl2.6H2O and 1 mM KCl) to which 50 μl DNAse solution (1 mg/ml in 0.15 M NaCl) was added. After an incubation of 90 min. at 37° C., the reaction was terminated by adding 1.45 g NaCl, followed by a further incubation at 58° C. for 15 min. The reaction mixture was cooled on ice and dialysed at 4° C. for respectively 1.5 and 2 hours against 1.5 l of 0.2 M KCl, and twice against 1.5 l of 0.01 M KCl for 1.5 and 2 h respectively. The mixture was aliquoted and stored at −20° C. Histones (1 mg/ml, type II-A, supplier: Sigma) were biotinylated using the biotinylation kit of Amersham and stored aliquoted at −20° C. A stock solution of 100 mg/ml SPA poly(vinyl toluene) (PVT) beads (supplier: Amersham) was made in PBS. A stock solution of [^3H]-NAD^+ was made by adding 120 μl of [^3H]-NAD^+ (0.1 mCi/ml, supplier: NEN) to 6 ml incubation buffer (50 mM Tris/HCl, pH 8; 0.2 mM DTT; 4 mM MgCl2). A solution of 4 mM NAD^+ (supplier: Roche) was made in incubation buffer (from a 100 mM stock solution in water stored at −20° C.). The PARP-1 enzyme was produced using art known techniques, i.e. cloning and expression of the protein starting from human liver cDNA. Information concerning the used protein sequence of the PARP-1 enzyme including literature references can be found in the Swiss-Prot database under primary accession number P09874. Biotinylated histones and PVT-SPA beads were mixed and pre-incubated for 30 min. at room temperature. PARP-1 enzyme (concentration was lot dependent) was mixed with the nicked DNA and the mixture was pre-incubated for 30 min. at 4° C. Equal parts of this histones/PVT-SPA beads solution and PARP-1 enzyme/DNA solution were mixed and 75 μl of this mixture together with 1 μl of compound in DMSO and 25 μl of [^3H]-NAD^+ was added per well into a 96-well microtiterplate. The final concentrations in the incubation mixture were 2 μg/ml for the biotinylated histones, 2 mg/ml for the PVT-SPA beads, 2 μg/ml for the nicked DNA and between 5-10 μg/ml for the PARP-1 enzyme. After incubation of the mixture for 15 min. at room temperature, the reaction was terminated by adding 100 μl of 4 mM NAD^+ in incubation buffer (final concentration 2 mM) and plates were mixed. The beads were allowed to sediment for at least 15 min. and plates transferred to a TopCountNXT™ (Packard) for scintillation counting, values were expressed as counts per minute (cpm). For each experiment, controls (containing PARP-1 enzyme and DMSO without compound), a blank incubation (containing DMSO but no PARP-1 enzyme or compound) and samples (containing PARP-1 enzyme and compound dissolved in DMSO) were run in parallel. All compounds tested were dissolved and eventually further diluted in DMSO. […] In each test, the blank value was subtracted from both the control and the sample values. The control sample represented maximal PARP-1 enzyme activity. For each sample, the amount of cpm was expressed as a percentage of the mean cpm value of the controls. When appropriate, IC50-values (concentration of the drug, needed to reduce the PARP-1 enzyme activity to 50% of the control) were computed using linear interpolation between the experimental points just above and below the 50% level. Herein the effects of test compounds are expressed as pIC50 (the negative log value of the IC50-value). […]

[4] = molecular target: T1, PARP-1 enzyme; assay: In vitro filtration assay for PARP-1 inhibitory activity; format: biochemical; conditions: nicked DNA activated PARP-1, [32P]-NAD+, histones; read-out: In vitro filtration assay pIC50 (converted)
Experimental: Compounds of the present invention were tested in an in vitro filtration assay assessing PARP-1 activity (triggered in the presence of nicked DNA) by means of its histone poly(ADP-ribosyl)ation activity using [^32P]-NAD as ADP-ribosyl donor. The radioactive ribosylated histones were precipitated by trichloroacetic acid (TCA) in 96-well filterplates and the incorporated [^32P] measured using a scintillation counter
A mixture of histones (stock solution: 5 mg/ml in H2O), NAD^+ (stock solution: 100 mM in H2O), and [^32P]-NAD^+ in incubation buffer (50 mM Tris/HCl, pH 8; 0.2 mM DTT; 4 mM MgCl2) was made. A mixture of the PARP-1 enzyme (5-10 μg/ml) and nicked DNA was also made. The nicked DNA was prepared as described in the in vitro SPA for PARP-1 inhibitory activity. Seventy-five μl of the PARP-1 enzyme/DNA mixture together with 1 μl of compound in DMSO and 25 μl of histones-NAD^+/[^32P]-NAD^+ mixture was added per well of a 96-well filterplate (0.45 μm, supplier Millipore). The final concentrations in the incubation mixture were 2 μg/ml for the histones, 0.1 mM for the NAD^+, […] (0.5 μC) for the [^32P]-NAD^+ and 2 μg/ml for the nicked DNA. Plates were incubated for 15 min. at room temperature and the reaction was terminated by the addition of 10 μl ice cold 100% TCA followed by the addition of 10 μl ice-cold BSA solution (1% in H2O). The protein fraction was allowed to precipitate for 10 min. at 4° C. and plates were vacuum filtered. The plates were subsequently washed with, for each well, 1 ml of 10% ice cold TCA, 1 ml of 5% ice cold TCA and 1 ml of 5% TCA at room temperature. Finally 100 μl of scintillation solution (Microscint 40, Packard) was added to each well and the plates were transferred to a TopCountNXT™ (supplier: Packard) for scintillation counting and values were expressed as counts per minute (cpm). For each experiment, controls (containing PARP-1 enzyme and DMSO without compound), a blank incubation (containing DMSO but no PARP-1 enzyme or compound) and samples (containing PARP-1 enzyme and compound dissolved in DMSO) were run in parallel. All compounds tested were dissolved and eventually further diluted in DMSO. In first instance, compounds were tested at a concentration of 10^−5M. […] In each test, the blank value was subtracted from both the control and the sample values. The control sample represented maximal PARP-1 enzyme activity. For each sample, the amount of cpm was expressed as a percentage of the mean cpm value of the controls. When appropriate, IC50-values (concentration of the drug, needed to reduce the PARP-1 enzyme activity to 50% of the control) were computed using linear interpolation between the experimental points just above and below the 50% level. Herein the effects of test compounds are expressed as pIC50 (the negative log value of the IC50−-value). As a reference compound, 4-amino-1,8-naphthalimide was included to validate the filtration assay.

T1 sequence (P09874 whole entry): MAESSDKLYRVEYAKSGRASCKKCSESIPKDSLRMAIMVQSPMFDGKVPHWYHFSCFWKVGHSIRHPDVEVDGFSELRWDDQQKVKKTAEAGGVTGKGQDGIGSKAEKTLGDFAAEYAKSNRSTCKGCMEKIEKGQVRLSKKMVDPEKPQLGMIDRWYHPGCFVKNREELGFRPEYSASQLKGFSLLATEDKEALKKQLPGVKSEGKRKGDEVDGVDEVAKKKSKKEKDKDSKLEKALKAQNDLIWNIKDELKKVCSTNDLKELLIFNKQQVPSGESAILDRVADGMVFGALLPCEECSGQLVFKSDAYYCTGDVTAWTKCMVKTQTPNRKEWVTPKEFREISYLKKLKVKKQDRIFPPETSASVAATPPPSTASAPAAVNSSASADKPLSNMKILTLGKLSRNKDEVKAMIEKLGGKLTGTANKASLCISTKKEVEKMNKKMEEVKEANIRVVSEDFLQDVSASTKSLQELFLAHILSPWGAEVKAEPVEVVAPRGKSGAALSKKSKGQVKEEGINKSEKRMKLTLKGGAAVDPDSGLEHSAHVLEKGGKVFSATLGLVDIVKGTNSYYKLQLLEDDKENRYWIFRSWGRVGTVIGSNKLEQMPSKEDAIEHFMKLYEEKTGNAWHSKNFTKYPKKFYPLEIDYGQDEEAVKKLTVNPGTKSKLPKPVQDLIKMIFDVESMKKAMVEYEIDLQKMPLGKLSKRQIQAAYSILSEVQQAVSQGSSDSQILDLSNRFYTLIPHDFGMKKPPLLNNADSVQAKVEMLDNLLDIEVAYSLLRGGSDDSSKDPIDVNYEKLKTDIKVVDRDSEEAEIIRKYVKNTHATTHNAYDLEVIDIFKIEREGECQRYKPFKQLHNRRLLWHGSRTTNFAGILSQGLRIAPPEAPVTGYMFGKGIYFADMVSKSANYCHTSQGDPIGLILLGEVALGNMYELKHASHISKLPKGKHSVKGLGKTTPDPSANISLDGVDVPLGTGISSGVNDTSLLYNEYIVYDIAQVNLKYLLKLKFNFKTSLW

IC50 [3] [nM] | IC50 [4] [nM] | SMILES | also measured
 |  | CCc1nc2ccc(C(c3ccccc3)N3CCC(NCCOC)CC3)cc2[nH]c1=O (stereo not shown) (as salt: salt) [Compound 2] | melting point: 98 °C
 |  | Oc1cccc2c(O)nccc12 [1,5-dihydroxyisoquinoline] | reduction in infarct size ([1]; single injection 1 mg/kg): 38-48%
 |  | NC(=O)c1cccc(N)c1 [3-amino-benzamide] | effect on inflammatory response, distal colon [2]: reduced the inflammatory response; reduction in infarct size in the heart ([1]; single injection 10 mg/kg, one minute before occlusion or one minute before reperfusion): 32-42%
206 |  | CCc1nc2ccc(CC(c3ccccc3)n3ccnc3)cc2[nH]c1=O (stereo not shown) [Compound 1] | melting point: 166 °C
7.5 |  | CCc1nc2ccc(C(c3ccccc3)N3CCC(NCCOC)CC3)cc2[nH]c1=O (stereo not shown) [Compound 2] | 
899 | 9890 | Cc1cc2ccc(C(CCN(C)C)c3ccccc3)cc2[nH]c1=O (stereo not shown) [Compound 3] | 
409 |  | CCc1nc2ccc(C(O)c3ccccc3)cc2[nH]c1=O (stereo not shown) [Compound 4] | melting point: 202 °C
236 | 693 | CCc1nc2ccc(C(c3ccc(Cl)cc3)N3CCCCC3)cc2[nH]c1=O (stereo not shown) [Compound 5] | 
818 |  | CCOC(=O)C1CCN(C(c2ccc(Cl)cc2)c2ccc3nc(CC)c(=O)[nH]c3c2)CC1 (stereo not shown) [Compound 6] | 
586 |  | CCc1nc2ccc(CC(c3ccc(Cl)cc3)N3CCCC3)cc2[nH]c1=O (stereo not shown) [Compound 7] | 
411 | 1410 | Cc1nc2ccc(C(c3ccc(C(C)C)cc3)n3ccnc3)cc2[nH]c1=O (stereo not shown) [Compound 8] | 
312 |  | CCc1nc2ccc(C(NCCCN(C)Cc3ccccc3)c3ccccc3)cc2[nH]c1=O (stereo not shown) [Compound 9] | 
552 |  | CCc1nc2ccc(CC(O)c3ccc(Cl)cc3)cc2[nH]c1=O (stereo not shown) [Compound 10] | 
914 |  | CCc1nc2ccc(CC(O)c3ccccc3)cc2[nH]c1=O (stereo not shown) [Compound 11] | 
728 | 3600 | CCc1nc2ccc(C(c3cccc(F)c3)n3ccnc3)cc2[nH]c1=O (stereo not shown) [Compound 12] | 
718 | 4940 | CCc1nc2ccc(C(c3ccccc3F)n3ccnc3)cc2[nH]c1=O (stereo not shown) [Compound 13] | 
1600 | 2670 | CCc1nc2ccc(C(c3ccccc3)n3cccn3)cc2[nH]c1=O (stereo not shown) [Compound 14] | 
329 | 6380 | CCc1nc2ccc(CC(c3ccc(Cl)cc3)n3ccnc3)cc2[nH]c1=O (stereo not shown) [Compound 15] | 
577 | 4530 | CCc1nc2ccc(C(c3ccccc3)c3cccnc3)cc2[nH]c1=O (stereo not shown) [Compound 16] | 
334 |  | CCc1nc2ccc(C(c3ccccc3)n3cncn3)cc2[nH]c1=O (stereo not shown) [Compound 17] | 
1000 | 4130 | CCc1nc2ccc(C(c3ccc(F)cc3)n3ccnc3)cc2[nH]c1=O (stereo not shown) [Compound 18] | 
231 | 615 | CCc1nc2ccc(C(c3ccccc3)n3ccnc3)cc2[nH]c1=O (stereo not shown) [Compound 19] | 
4110 | > 10000 | Cc1nc2ccc(C(c3ccc(Cl)cc3)n3ccnc3)cc2[nH]c1=O (stereo not shown) [Compound 20, 7-[(4-chlorophenyl)-1H-imidazol-1-ylmethyl]-3-methyl-2(1H)-quinoxalinone] | 
